The record followed here is paper PMC8330957 (Nature genetics, 2020).

Structures are written as SMILES. Entries after “also recorded” stand apart in the source; their conditions may differ.

Experiment [1] concerns JURKAT cells. Kind of experiment: RT-qPCR of H3K27me3-marked genes after UNC1999 treatment, JURKAT. The format is cell-based, human. Conditions: 5 μM UNC1999, three days, three independent experiments. On the technique in general: Quantitative PCR measures a nucleic acid by following its amplification.
The subject of experiment [2] is JURKAT cells. Nature of the experiment: RNA-seq of JURKAT cells treated with UNC1999. Format: cell-based, human. Conditions: three-day treatment with 5 μM UNC1999.
Experiment [3] has as its system 3×Flag-BAHCC1 at TSS of target genes, JURKAT cells. Kind of experiment: Flag ChIP-qPCR of BAHCC1 binding to target genes. Conditions: UNC1999 versus DMSO, three independent experiments. The format is cell-based, human.
Experiment [4] relates to BAHCC1 (chromatin-bound), 293 cells. Nature of the experiment: Cell fractionation and immunoblotting of chromatin-bound BAHCC1. The format is cell-based. Conditions: immunoblotting after cell fractionation, UNC1999 versus DMSO. Background: Immunoblotting shows a protein as a band on a membrane.
Another experiment deals with CUTLL1 cells. Nature of the experiment: RT-qPCR of H3K27me3-marked genes after UNC1999 treatment, CUTLL1. The format is cell-based, human. Conditions: 5 μM UNC1999, three days, three independent experiments.

Regarding `CCCc1cc(C)[nH]c(=O)c1CNC(=O)c1cc(-c2ccc(N3CCN(C(C)C)CC3)nc2)cc2c1cnn2C(C)C` [UNC1999], the “expression of examined H3K27me3-marked genes” value in the experiment with JURKAT cells [1] and in the experiment with CUTLL1 cells was “re-activation” throughout. Besides, the “overlap of UNC1999-derepressed DEGs with those caused by BAHCC1 loss” value in the experiment with JURKAT cells [2] was “significant overlapping; also recorded: significantly overlapped”. Besides, in experiment [3], the “BAHCC1 binding to its target genes” value was “significantly reduced”. In addition, the “overall BAHCC1 binding to chromatin” value in experiment [4] is “impaired”.
